Source: patent US9084748B2, “Biopolymer produced by fermenting the extract of soybean with folic acid and a composition containing thereof” (Damy Chemical Co., Ltd., priority 2007, dated 2015)

Tests used:
[1] = tested on: human dermal fibroblast neonatal (HDF-N); experiment: Cell growth of fibroblast primary culture, neutral red (NR) assay; format: cell-based; conditions: fibroblasts incubated 24 hours
Excerpt: It was identified through the current experiment that the folyl EFS promotes cell growth and collagen biosynthesis. A cell line used in the current experiment was a primary culture of a fibroblast (human dermal fibroblast neonatal; (HDF-N; Gibco, Cooper, M. L. et al, Biomaterials 12:243, 1991), and a culture media used was a fibroblast neonatal growth medium (FGM, KDR Co.). […] Shao-Zeng Z. et al., Cell Biology and Toxicology, 6:2, 1990) (see FIG. 7).

[2] = tested on: human dermal fibroblast neonatal; experiment: Collagen biosynthesis promotion, human collagen type-1 ELISA; format: cell-based
Protocol: The folyl EFS and the human dermal fibroblast neonatal were incubated for 3 days, and the supernatant was isolated and collagen was quantified using a human collagen type-1 ELISA kit (Cosmo Bio Co.). A sample used in the current experiment was a 1% solution containing Composition 2 used in Preparation Example 2, and 4% of 1,3-butyleneglycol was added to the sample and preserved. Also, to compare with the effect of the folyl EFS, a folic acid solution in which the concentration of the folic acid was the same as that in the folyl EFS was prepared. In addition, 10 ng/ml of transforming growth factor-beta (TGF-β; Sigma), which is known as a promotion factor for collagen biosynthesis, was compared with the folyl EFS.
The collagen biosynthesis promotion effect of the folyl EFS is shown in the bar chart of FIG. 8. A folyl EFS produced as a cosmetic source material was a 1% liquid product. In FIG. 8, the concentration (%) of the x-axis denotes a ratio of the volume of the folyl EFS to the volume of the entire culture solution (v/v, %). The results are represented as the ratio of the value of collagen of each group with respect to the average value of collagen in a group not treated with anything when the average value of collagen in the group not treated with anything was set at 100%. […]

[3] = tested on: mast cells (ATCC TIB-64, P815); experiment: Quantifying histamine secreted by C48/80-stimulated mast cells (ELISA); format: cell-based
Protocol: This experiment was performed to identify how much the folyl EFS reduces the amount of histamine secreted when mast cells are treated with a stimulant. […] FIG. 2 is a bar chart showing the results of the experiment. […] As described above, it can be seen that the folyl EFS has an excellent anti-histamine (anti-allergic) effect.

mice (BALB/C, male) = experiment: Anti-allergic (anti-anaphylaxis) test, C48/80 intraperitoneally injected; format: in vivo
Protocol: C48/80 is a material that stimulates immune organs and induces acute anaphylaxis within 30 minutes when intraperperitoneally injected. In the current experiment, the number of test animals which died within a predetermined time period (24 hours) after the intraperperitoneal injection of the C48/80 was counted. In the current experiment, 10 mice (BALB/C, male) were used per group, and each group was tested for three times and the average value of the three experimental results was represented as a death ratio (%).

Nc1nc2ncc(CNc3ccc(C(=O)N[C@@H](CCC(=O)O)C(=O)O)cc3)nc2c(=O)[nH]1 [folic acid]
cell growth rate when concentration gradually increased [1]: the cell growth rate was not increased accordingly
collagen biosynthesis promotion effect ([2]; folic acid solution at same folic acid concentration as in folyl EFS): did not occur within an error range

O=C(O)c1cc(=O)c2c(OCC(O)COc3cccc4oc(C(=O)O)cc(=O)c34)cccc2o1 [sodium cromolyn]
ED50 value (histamine secretion inhibition) ([3]; C48/80-stimulated mast cells, ELISA): 0.5%
histamine secretion inhibition rate ([3]; about 0.5% of the sodium cromolyn): 50%
inhibition of development of anaphylaxis (mice (BALB/C, male); 1% sodium cromolyn): up to 80%
inhibition of sequela of anaphylaxis (mice (BALB/C, male); result in words): did not inhibit sequela of anaphylaxis

TGF-β
maximum promotion rate of collagen biosynthesis ([2]; at 0.63% (v/v, %), 3 days, relative to untreated group set at 100%): 22%
